# Results reported in publication PMC8078842 (PLoS Neglected Tropical Diseases, 2021).
# What was measured:
# [1] = tested on: Trypanosoma brucei blood stream form trypomastigotes (T. b. brucei strain S427); assay: Trypanocidal activity in vitro (Alamar Blue); format: cell-based
# [2] = target: Imidazoline, I2 [central]; assay: CNS side effect panel, [^3H]2-BFI; format: binding
# [3] = tested on: Adrenergic, Alpha 1, Non-selective; assay: CNS side effect panel, [^3H]7-MeOxy-Prazosin; format: binding; conditions: pentamidine 1.0E^-5 M
# [4] = target: Muscarinic, Non-selective, Central; assay: CNS side effect panel, [^3H]QNB; format: binding
# [5] = target: Histamine, H2 (Cavia porcellus, UniProt P47747); assay: CNS side effect panel, [^125I]-Aminopotentidine; format: binding
# Sequence of Histamine, H2 (P47747 whole entry): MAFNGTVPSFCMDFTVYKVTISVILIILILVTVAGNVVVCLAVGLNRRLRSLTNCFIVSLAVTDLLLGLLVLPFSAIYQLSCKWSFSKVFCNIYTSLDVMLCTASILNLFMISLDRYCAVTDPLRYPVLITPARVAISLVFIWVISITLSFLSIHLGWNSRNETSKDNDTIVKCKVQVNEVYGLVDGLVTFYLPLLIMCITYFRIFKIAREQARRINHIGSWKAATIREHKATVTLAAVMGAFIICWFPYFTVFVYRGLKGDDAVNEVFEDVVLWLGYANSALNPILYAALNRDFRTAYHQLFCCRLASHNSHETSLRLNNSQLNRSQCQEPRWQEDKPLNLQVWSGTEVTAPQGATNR
# [6] = tested on: Adrenergic, Alpha 2, Non-selective; assay: CNS side effect panel, [^3H]RX821002; format: binding; conditions: pentamidine 1.0E^-5 M
# [7] = tested on: Adrenergic, Beta, Non-selective; assay: CNS side effect panel, [^3H]DHA; format: binding; conditions: pentamidine 1.0E^-5 M
# [8] = tested on: Sodium, Site 2; assay: CNS side effect panel, [^3H]Batrachotoxin A 20-a-Benzo; format: binding; conditions: pentamidine 1.0E^-5 M
# [9] = target: T1, Dopamine, D2s (h) (Homo sapiens, UniProt P14416); assay: CNS side effect panel, [^3H]-Raclopride; format: binding; conditions: pentamidine 1.0E^-5 M
# T1 construct: purchased Perkin-Elmer Science Discovery Systems (NovaScreen), customised CNS screening panel
# T1 sequence (P14416 1-414 isoform P14416-2): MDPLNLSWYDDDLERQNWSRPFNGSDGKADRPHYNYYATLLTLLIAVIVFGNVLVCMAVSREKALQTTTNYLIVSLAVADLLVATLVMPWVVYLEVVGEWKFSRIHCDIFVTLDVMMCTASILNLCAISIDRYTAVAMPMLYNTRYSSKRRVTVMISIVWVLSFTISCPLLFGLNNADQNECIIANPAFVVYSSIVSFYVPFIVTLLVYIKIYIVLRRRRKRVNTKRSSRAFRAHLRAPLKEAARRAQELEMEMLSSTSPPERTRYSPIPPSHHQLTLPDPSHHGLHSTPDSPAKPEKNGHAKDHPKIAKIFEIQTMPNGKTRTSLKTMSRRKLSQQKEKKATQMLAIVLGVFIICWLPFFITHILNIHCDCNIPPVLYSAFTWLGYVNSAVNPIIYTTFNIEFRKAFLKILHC
# [10] = tested on: Glutamate, MK-801 Site (Ionotropic); assay: CNS side effect panel, [^3H]MK-801; format: binding; conditions: pentamidine 1.0E^-5 M
# [11] = tested on: Potassium Channel, ATP-Sensitive; assay: CNS side effect panel, [^3H]Glibenclamide; format: binding; conditions: pentamidine 1.0E^-5 M
# [12] = tested on: Glutamate, NMDA Agonist Site (Ionotropic); assay: CNS side effect panel, [^3H]CGP 39653; format: binding; conditions: pentamidine 1.0E^-5 M
# [13] = target: T2, Endothelin, ET-B (h) (Homo sapiens, UniProt P24530); assay: CNS side effect panel, [^125I]-Endothelin-1; format: binding; conditions: pentamidine 1.0E^-5 M
# T2 construct: purchased Perkin-Elmer Science Discovery Systems (NovaScreen), customised CNS screening panel
# T2 sequence (P24530 27-442): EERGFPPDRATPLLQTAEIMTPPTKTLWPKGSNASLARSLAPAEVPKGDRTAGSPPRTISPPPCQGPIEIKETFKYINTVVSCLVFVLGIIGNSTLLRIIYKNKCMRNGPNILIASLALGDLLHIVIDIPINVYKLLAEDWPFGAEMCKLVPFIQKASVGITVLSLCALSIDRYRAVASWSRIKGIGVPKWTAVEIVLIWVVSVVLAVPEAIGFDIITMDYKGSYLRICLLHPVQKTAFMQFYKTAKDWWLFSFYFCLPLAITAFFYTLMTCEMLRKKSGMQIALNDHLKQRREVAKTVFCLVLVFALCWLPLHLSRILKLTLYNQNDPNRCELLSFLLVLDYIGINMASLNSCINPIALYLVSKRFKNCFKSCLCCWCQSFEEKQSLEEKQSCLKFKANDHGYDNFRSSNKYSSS
# [14] = tested on: Angiotensin II, AT2; assay: CNS side effect panel, [^125I]Tyr4-Angiotensin II; format: binding; conditions: pentamidine 1.0E^-5 M
# [15] = tested on: Glutamate, AMPA Site (Ionotropic); assay: CNS side effect panel, [^3H]AMPA; format: binding; conditions: pentamidine 1.0E^-5 M
# [16] = tested on: Adenosine, Non-selective; assay: CNS side effect panel, [^3H]NECA; format: binding; conditions: pentamidine 1.0E^-5 M
# [17] = tested on: Glutamate, Kainate Site (Ionotropic); assay: CNS side effect panel, [^3H]Kainic acid; format: binding; conditions: pentamidine 1.0E^-5 M
# [18] = tested on: Imidazoline2 receptor; conditions: 3H-idazoxan binding; cited from earlier work
# [19] = tested on: NMDA (Ionotropic) glutamate receptor; conditions: Voltage dependent; cited from earlier work
# [20] = tested on: Rat NMDA receptor; conditions: Rat brain membrane 3H-dizocilpine binding; cited from earlier work
# [21] = tested on: Delta2glutamate receptor; conditions: Voltage independent; cited from earlier work
# [22] = tested on: Calmodulin; conditions: Inhibits nNO synthase in vitro; cited from earlier work
# [23] = tested on: Serine proteases; conditions: cited from earlier work
# [24] = tested on: P-gp (human MDR1); assay: in vitro; conditions: dog
# [25] = human, in vivo; cited from earlier work
# [26] = In vivo pharmacokinetic brain distribution with [^3H(G)]pentamidine; parameters: species or system BALB/c mice; conditions: 2 hours post-injection i.v., corrected for vascular/[^14C]sucrose space
# [27] = read-out: % of bsf trypomastigotes inhibited
molecule,measurement,setting,value
"N=C(N)c1ccc(OCCCCCOc2ccc(C(=N)N)cc2)cc1 [Pentamidine, 1,5-bis-4ρ-amidinophenoxypentane]",inhibition at 5.7 pM,[1]; [27],4.1%
same,inhibition at 17 pM,[1]; [27],35%
same,inhibition at 51 pM,[1]; [27],65.3%
same,inhibition at 0.3 µM,[1]; [27],97.4%
same,inhibition at 1 µM,[1]; [27],98.3%
same,IC50,[1]; read-out: IC50 (± 95% CI) of pentamidine,0.0211 nM
same,Ki,"[2]; Imidazoline 1_2, concentration-response",1 nM
same,Percent Inhibition,[2]; pentamidine 1.0E^-5 M,101.03%
same,Percent Inhibition,[3],100.77%
same,Ki,"[4]; Muscarinic (central), concentration-response",281 nM
same,Percent Inhibition,[4]; pentamidine 1.0E^-5 M,90.90%
same,Ki,[5],7210 nM
same,Percent Inhibition,[5]; pentamidine 1.0E^-5 M,71.07%
same,Percent Inhibition,[6],56.14%
same,Percent Inhibition,[7],55.37%
same,Percent Inhibition,[8],46.94%
same,Percent Inhibition,[9],20.12%
same,Percent Inhibition,[10],6.25%
same,Percent Inhibition,[11],6.07%
same,Percent Inhibition,[12],5.99%
same,Percent Inhibition,[13],4.50%
same,Percent Inhibition,[14],2.96%
same,Percent Inhibition,[15],1.34%
same,Percent Inhibition,[16],1.28%
same,Percent Inhibition,[17],-13.63%
same,Affinity,[18],0.014 µM
same,Affinity,[19],0.2 µM
same,Affinity,[20],1.8 µM
same,Affinity,[21],5 µM
same,Affinity,[22],30 µM
same,Affinity,[23],4000 µM
same,"Papp B→A at 1 h, 10 µM","[24]; MDCK-MDR1, pH 7.4, Papp B2A Replicate 1",0.336 ×10⁻⁶ cm/s
same,"Papp B→A at 1 h, 10 µM","[24]; MDCK-MDR1, pH 7.4, Papp B2A Replicate 2",0.357 ×10⁻⁶ cm/s
same,"Papp B→A at 1 h, 20 µM","[24]; MDCK-MDR1, pH 7.4, Papp basal to apical",0.418 ×10⁻⁶ cm/s
same,incidence of diabetes mellitus,[25],occasional but irreversible
same,incidence of hypoglycaemia,[25],5-40%
[^3H(G)]pentamidine,RTISSUE/PLASMA% (mean±SEM) Cerebellum,[26],204.02 (± 35.28) %
same,RTISSUE/PLASMA% (mean±SEM) Choroid plexus,[26],24666.66 (± 4928) %
same,RTISSUE/PLASMA% (mean±SEM) Homogenate,[26],249.41 (± 35.59) %
same,RTISSUE/PLASMA% (mean±SEM) Left brain,[26],152.29 (± 33.48) %
same,RTISSUE/PLASMA% (mean±SEM) Midbrain,[26],181.18 (± 45.30) %
same,RTISSUE/PLASMA% (mean±SEM) Pellet,[26],479.72 (± 72.50) %
same,RTISSUE/PLASMA% (mean±SEM) Pituitary gland,[26],15053.41 (± 3598) %
same,RTISSUE/PLASMA% (mean±SEM) Right brain,[26],115.52 (± 12.46) %
same,RTISSUE/PLASMA% (mean±SEM) Supernatant,[26],123.35 (± 28.45) %
